# Measurements: US6787525B1, “Glyceryl nucleotides, method for the production thereof and their use” (priority 1998, dated 2004)
# How the values were obtained:
# MDA-N = test: In vitro cytostatic effect (SRB): MDA-N, Breast cancer
# RXF 393 = test: In vitro cytostatic effect (SRB): RXF 393, Kidney cancer
# A549/ATCC = test: In vitro cytostatic effect (SRB): A549/ATCC, Lung cancer
# ACHN = test: In vitro cytostatic effect (SRB): ACHN, Kidney cancer
# SK-OV-3 = test: In vitro cytostatic effect (SRB): SK-OV-3, Ovarian cancer
# NCI/ADR-RES = test: In vitro cytostatic effect (SRB): NCI/ADR-RES, Breast cancer
# NCI-H226 = test: In vitro cytostatic effect (SRB): NCI-H226, Lung cancer
# SNB-75 = test: In vitro cytostatic effect (SRB): SNB-75, Cancer of the central nervous system
# M14 = test: In vitro cytostatic effect (SRB): M14, Melanoma
# IGROV1 = test: In vitro cytostatic effect (SRB): IGROV1, Ovarian cancer
# RPMI-8226 = test: In vitro cytostatic effect (SRB): RPMI-8226, Leukemia
# KM12 = test: In vitro cytostatic effect (SRB): KM12, Intestinal cancer
# SW-620 = test: In vitro cytostatic effect (SRB): SW-620, Intestinal cancer
# HCT-15 = test: In vitro cytostatic effect (SRB): HCT-15, Intestinal cancer
# 768-0 = test: In vitro cytostatic effect (SRB): 768-0, Kidney cancer
# DU-145 = test: In vitro cytostatic effect (SRB): DU-145, Prostate cancer
# SK-MEL-28 = test: In vitro cytostatic effect (SRB): SK-MEL-28, Melanoma
# BT-549 = test: In vitro cytostatic effect (SRB): BT-549, Breast cancer
# EKVX = test: In vitro cytostatic effect (SRB): EKVX, Lung cancer
# U251 = test: In vitro cytostatic effect (SRB): U251, Cancer of the central nervous system
# SF-295 = test: In vitro cytostatic effect (SRB): SF-295, Cancer of the central nervous system
# HOP-62 = test: In vitro cytostatic effect (SRB): HOP-62, Lung cancer
# OVCAR-4 = test: In vitro cytostatic effect (SRB): OVCAR-4, Ovarian cancer
# UACC-62 = test: In vitro cytostatic effect (SRB): UACC-62, Melanoma
# COLO205 = test: In vitro cytostatic effect (SRB): COLO205, Intestinal cancer
# OVCAR-8 = test: In vitro cytostatic effect (SRB): OVCAR-8, Ovarian cancer
# UACC-257 = test: In vitro cytostatic effect (SRB): UACC-257, Melanoma
# OVCAR-3 = test: In vitro cytostatic effect (SRB): OVCAR-3, Ovarian cancer
# [1] = read-out: LC50, 48-hour incubation
smiles,measurement,setting,value
"CCCCCCCCCCCCCCCCCCOC(COP(=O)(O)OCC1OC(n2cc(F)c(=O)[nH]c2=O)CC1O)COP(=O)(O)OCC1OC(n2ccc(N)nc2=O)C(O)C1O (racemic) [NSC 698688-A/1, arabinocytidylyl-(5′→1)-2-O-octadecyl-rac-glycerylyl-(3→5′)-5-fluoro-2′-deoxyuridine]",GI50,MDA-N; 48-hour incubation,> 100 µM
same,TGI,MDA-N; 48-hour incubation,>1.00E − 04 mol/l
same,CC50,MDA-N; [1],> 100 µM
same,GI50,RXF 393; 48-hour incubation,10.2 µM
same,TGI,RXF 393; 48-hour incubation,2.86E − 05 mol/l
same,CC50,RXF 393; [1],80 µM
same,GI50,A549/ATCC; 48-hour incubation,0.346 µM
same,TGI,A549/ATCC; 48-hour incubation,>1.00E − 04 mol/l
same,CC50,A549/ATCC; [1],> 100 µM
same,GI50,ACHN; 48-hour incubation,0.466 µM
same,TGI,ACHN; 48-hour incubation,>1.00E − 04 mol/l
same,CC50,ACHN; [1],> 100 µM
same,GI50,SK-OV-3; 48-hour incubation,36.3 µM
same,TGI,SK-OV-3; 48-hour incubation,>1.00E − 04 mol/l
same,CC50,SK-OV-3; [1],> 100 µM
same,TGI,NCI/ADR-RES; 48-hour incubation,>1.00E − 04 mol/l
same,CC50,NCI/ADR-RES; [1],> 100 µM
same,GI50,NCI-H226; 48-hour incubation,75.9 µM
same,TGI,NCI-H226; 48-hour incubation,>1.00E − 04 mol/l
same,CC50,NCI-H226; [1],> 100 µM
same,GI50,SNB-75; 48-hour incubation,20.4 µM
same,TGI,SNB-75; 48-hour incubation,>1.00E − 04 mol/l
same,CC50,SNB-75; [1],> 100 µM
same,GI50,M14; 48-hour incubation,3.53 µM
same,TGI,M14; 48-hour incubation,8.62E − 05 mol/l
same,CC50,M14; [1],> 100 µM
same,GI50,IGROV1; 48-hour incubation,13.6 µM
same,TGI,IGROV1; 48-hour incubation,>1.00E − 04 mol/l
same,CC50,IGROV1; [1],> 100 µM
same,GI50,RPMI-8226; 48-hour incubation,1.65 µM
same,TGI,RPMI-8226; 48-hour incubation,>1.00E − 04 mol/l
same,CC50,RPMI-8226; [1],> 100 µM
same,GI50,KM12; 48-hour incubation,74.7 µM
same,TGI,KM12; 48-hour incubation,>1.00E − 04 mol/l
same,CC50,KM12; [1],> 100 µM
same,GI50,SW-620; 48-hour incubation,62.8 µM
same,TGI,SW-620; 48-hour incubation,>1.00E − 04 mol/l
same,CC50,SW-620; [1],> 100 µM
same,GI50,HCT-15; 48-hour incubation,14.4 µM
same,TGI,HCT-15; 48-hour incubation,>1.00E − 04 mol/l
same,CC50,HCT-15; [1],> 100 µM
same,GI50,768-0; 48-hour incubation,0.854 µM
same,TGI,768-0; 48-hour incubation,1.34E − 05 mol/l
same,CC50,768-0; [1],44.4 µM
same,GI50,DU-145; 48-hour incubation,2.68 µM
same,TGI,DU-145; 48-hour incubation,>1.00E − 04 mol/l
same,CC50,DU-145; [1],> 100 µM
same,GI50,SK-MEL-28; 48-hour incubation,57.8 µM
same,TGI,SK-MEL-28; 48-hour incubation,>1.00E − 04 mol/l
same,CC50,SK-MEL-28; [1],> 100 µM
same,GI50,BT-549; 48-hour incubation,14.5 µM
same,TGI,BT-549; 48-hour incubation,8.69E − 05 mol/l
same,CC50,BT-549; [1],> 100 µM
same,GI50,EKVX; 48-hour incubation,> 100 µM
same,TGI,EKVX; 48-hour incubation,>1.00E − 04 mol/l
same,CC50,EKVX; [1],> 100 µM
same,GI50,U251; 48-hour incubation,3.14 µM
same,TGI,U251; 48-hour incubation,2.48E − 05 mol/l
same,CC50,U251; [1],73.8 µM
same,GI50,SF-295; 48-hour incubation,0.799 µM
same,TGI,SF-295; 48-hour incubation,>1.00E − 04 mol/l
same,CC50,SF-295; [1],> 100 µM
same,GI50,HOP-62; 48-hour incubation,0.699 µM
same,TGI,HOP-62; 48-hour incubation,>1.00E − 04 mol/l
same,CC50,HOP-62; [1],> 100 µM
same,GI50,OVCAR-4; 48-hour incubation,58.5 µM
same,TGI,OVCAR-4; 48-hour incubation,>1.00E − 04 mol/l
same,CC50,OVCAR-4; [1],> 100 µM
same,GI50,UACC-62; 48-hour incubation,1.77 µM
same,TGI,UACC-62; 48-hour incubation,>1.00E − 04 mol/l
same,CC50,UACC-62; [1],> 100 µM
same,GI50,COLO205; 48-hour incubation,10.5 µM
same,TGI,COLO205; 48-hour incubation,3.88E − 05 mol/l
same,CC50,COLO205; [1],> 100 µM
same,GI50,OVCAR-8; 48-hour incubation,0.968 µM
same,TGI,OVCAR-8; 48-hour incubation,>1.00E − 04 mol/l
same,CC50,OVCAR-8; [1],> 100 µM
same,GI50,UACC-257; 48-hour incubation,49.8 µM
same,TGI,UACC-257; 48-hour incubation,>1.00E − 04 mol/l
same,CC50,UACC-257; [1],> 100 µM
same,GI50,OVCAR-3; 48-hour incubation,> 100 µM
same,TGI,OVCAR-3; 48-hour incubation,>1.00E − 04 mol/l
same,CC50,OVCAR-3; [1],> 100 µM
